The source of these data is PubChem BioAssay AID292 (DTP/NCI, 2004).

Values joined by “and” are separate entries in the source; they are usually repeats but may differ in a detail not shown here. Equal values may be shown once. Inconclusive results and toxic doses are left out.

The test system of this assay is B6C3F1 mice, ip Sarcoma M5076, median survival T/C. Put plainly: NCI In Vivo Anticancer Drug Screen. Data for tumor model Sarcoma M5076 (intraperitoneal) in B6C3F1 mice. To be noted: endpoint: median survival time, higher = longer survival. The method in brief:
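Tumour cells were transplanted into mice, compound or vehicle was given, survival of both groups was followed, and the treated figure was expressed over the control figure.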

Where [1] appears, read: dose: 25.0 mg/kg/injection, schedule: Q04DX004 (ip), vehicle: saline.
Setting [2] is: dose: 50.0 mg/kg/injection, schedule: Q04DX004 (ip), vehicle: saline.
Setting [3] is: dose: 100.0 mg/kg/injection, schedule: Q04DX004 (ip), vehicle: saline.
Where [4] appears, read: dose: 200.0 mg/kg/injection, schedule: Q04DX004 (ip), vehicle: saline.
Where [5] appears, read: dose: 400.0 mg/kg/injection, schedule: Q04DX004 (ip), vehicle: saline.
The mark [6] stands for this setting: dose: 50.0 mg/kg/injection, schedule: Q04DX004 (ip), vehicle: Klucel (hydroxypropylcellulose) (HPC).
[7] abbreviates: dose: 100.0 mg/kg/injection, schedule: Q04DX004 (ip), vehicle: Klucel (hydroxypropylcellulose) (HPC).
The mark [8] stands for this setting: dose: 200.0 mg/kg/injection, schedule: Q04DX004 (ip), vehicle: Klucel (hydroxypropylcellulose) (HPC).

As for `COc1ccccc1N=C1SCC(=O)N1Cc1ccco1`, the T/C is 110 % of control (dose: 50.0 mg/kg/injection, schedule: Q04DX004 (ip), vehicle: saline with Tween-80); 122 % of control (dose: 100.0 mg/kg/injection, schedule: Q04DX004 (ip), vehicle: saline with Tween-80); 101 % of control (dose: 200.0 mg/kg/injection, schedule: Q04DX004 (ip), vehicle: saline with Tween-80); 98 % of control (dose: 400.0 mg/kg/injection, schedule: Q04DX004 (ip), vehicle: saline with Tween-80); 102 % of control (dose: 800.0 mg/kg/injection, schedule: Q04DX004 (ip), vehicle: saline with Tween-80).

On to `Nc1nc(=S)c2[nH]cnc2[nH]1`, for which the T/C runs as follows: (dose: 3.0 mg/kg/injection, schedule: Q01DX004 (ip), vehicle: Klucel (hydroxypropylcellulose) (HPC)) 163 % of control; (dose: 6.0 mg/kg/injection, schedule: Q01DX004 (ip), vehicle: Klucel (hydroxypropylcellulose) (HPC)) 178 % of control; (dose: 12.0 mg/kg/injection, schedule: Q01DX004 (ip), vehicle: Klucel (hydroxypropylcellulose) (HPC)) 182 % of control; (dose: 24.0 mg/kg/injection, schedule: Q04DX004 (ip), vehicle: Klucel (hydroxypropylcellulose) (HPC)) 175 % of control.

With `O=C(Nc1ccccc1)c1cc2ccccc2oc1=O`, the T/C (dose: 28.13 mg/kg/injection, schedule: Q04DX004 (ip), vehicle: saline with Tween-80) is 94 % of control and the T/C (dose: 56.25 mg/kg/injection, schedule: Q04DX004 (ip), vehicle: saline with Tween-80) is 92 % of control.

Turning to `CCN(Cc1ccc(Cl)c(Cl)c1)c1ccc2nc(N)nc(N)c2c1C`, the T/C is 107 % of control (dose: 6.25 mg/kg/injection, schedule: Q04DX004 (ip), vehicle: saline); 107 % of control and 122 % of control (dose: 12.5 mg/kg/injection, schedule: Q04DX004 (ip), vehicle: saline); 118 % of control (2×) and 123 % of control under setting [1]; 110 % of control under setting [2].

With `O=NNc1ncccn1`, the T/C reads like this: (dose: 25.0 mg/kg/injection, schedule: Q04DX004 (ip), vehicle: water) 101 % of control; (dose: 50.0 mg/kg/injection, schedule: Q04DX004 (ip), vehicle: water) 100 % of control; (dose: 100.0 mg/kg/injection, schedule: Q04DX004 (ip), vehicle: water) 97 % of control; (dose: 200.0 mg/kg/injection, schedule: Q04DX004 (ip), vehicle: water) 100 % of control; (dose: 400.0 mg/kg/injection, schedule: Q04DX004 (ip), vehicle: water) 110 % of control.

As for `C=CCc1cn(C2CC(O)C(CO)O2)c(=O)[nH]c1=O` (stereo not drawn), the T/C is, setting by setting: under setting [2], 99 % of control; under setting [3], 93 % of control; under setting [4], 93 % of control; under setting [5], 101 % of control.

In the case of `COc1cc2c(cc1OC)-c1c3c(cc4c1[C@@H](C2)N(C)CC4)OCO3`, the T/C is, setting by setting: (dose: 12.5 mg/kg/injection, schedule: Q04DX004 (ip), vehicle: distilled water + Tween-80) 101 % of control; (dose: 25.0 mg/kg/injection, schedule: Q04DX004 (ip), vehicle: distilled water + Tween-80) 100 % of control; (dose: 50.0 mg/kg/injection, schedule: Q04DX004 (ip), vehicle: distilled water + Tween-80) 100 % of control; (dose: 100.0 mg/kg/injection, schedule: Q04DX004 (ip), vehicle: distilled water + Tween-80) 95 % of control.

Turning to `COc1cc2cc3c(c(O)c2c(O)c1/C=C/C(C)C)C(=O)CC(C)(OC(C)=O)C3` (stereo not drawn), the T/C (dose: 0.62 mg/kg/injection, schedule: Q01DX009 (ip), vehicle: Klucel (hydroxypropylcellulose) (HPC)) is 117 % of control; the T/C (dose: 0.63 mg/kg/injection, schedule: Q01DX009 (ip), vehicle: Klucel (hydroxypropylcellulose) (HPC)) is 98 % of control and 104 % of control and 106 % of control; the T/C (dose: 0.63 mg/kg/injection, schedule: Q04DX004 (ip), vehicle: Klucel (hydroxypropylcellulose) (HPC)) is 113 % of control; the T/C (dose: 1.25 mg/kg/injection, schedule: Q04DX004 (ip), vehicle: Klucel (hydroxypropylcellulose) (HPC)) was 121 % of control; the T/C (dose: 2.5 mg/kg/injection, schedule: Q04DX004 (ip), vehicle: Klucel (hydroxypropylcellulose) (HPC)) is 123 % of control; the T/C (dose: 3.6 mg/kg/injection, schedule: Q04DX004 (ip), vehicle: Klucel (hydroxypropylcellulose) (HPC)) was 106 % of control. Moreover, the T/C was 110 % of control (dose: 6.0 mg/kg/injection, schedule: Q04DX004 (ip), vehicle: Klucel (hydroxypropylcellulose) (HPC)); 118 % of control (dose: 10.0 mg/kg/injection, schedule: Q04DX004 (ip), vehicle: Klucel (hydroxypropylcellulose) (HPC)); 117 % of control (dose: 16.67 mg/kg/injection, schedule: Q04DX004 (ip), vehicle: Klucel (hydroxypropylcellulose) (HPC)).

For `CCN(CC)CCCC(C)Nc1c2ccc(Cl)cc2nc2ccc(OC)cc12` (stereo not drawn), the T/C runs as follows: under setting [1], 111 % of control; under setting [2], 115 % of control; under setting [3], 112 % of control; under setting [4], 91 % of control.

As for `CC1(C)N=C(N)N=C(N)N1c1ccc(CCCCc2ccc(S(=O)(=O)F)cc2Cl)c(Cl)c1`, the T/C was 204 % of control (dose: 15.0 mg/kg/injection, schedule: Q04DX004 (ip), vehicle: Klucel (hydroxypropylcellulose) (HPC)); 186 % of control (dose: 30.0 mg/kg/injection, schedule: Q04DX004 (ip), vehicle: Klucel (hydroxypropylcellulose) (HPC)); 270 % of control (dose: 60.0 mg/kg/injection, schedule: Q04DX004 (ip), vehicle: Klucel (hydroxypropylcellulose) (HPC)); 270 % of control (dose: 120.0 mg/kg/injection, schedule: Q04DX004 (ip), vehicle: Klucel (hydroxypropylcellulose) (HPC)); 270 % of control (dose: 240.0 mg/kg/injection, schedule: Q04DX004 (ip), vehicle: Klucel (hydroxypropylcellulose) (HPC)).

Turning to `CC(C)c1cc(C(=O)O)c(O)c(C(C)C)c1.CC(C)c1cc(C(=O)O)c(O)c(C(C)C)c1.[Cu]`, the T/C by setting is: (dose: 1.5 mg/kg/injection, schedule: Q04DX004 (ip), vehicle: saline with Tween-80) 95 % of control and 104 % of control; (dose: 3.0 mg/kg/injection, schedule: Q04DX004 (ip), vehicle: saline with Tween-80) 102 % of control and 104 % of control; (dose: 6.0 mg/kg/injection, schedule: Q04DX004 (ip), vehicle: saline with Tween-80) 96 % of control and 102 % of control; (dose: 12.0 mg/kg/injection, schedule: Q04DX004 (ip), vehicle: saline with Tween-80) 88 % of control and 102 % of control; (dose: 12.5 mg/kg/injection, schedule: Q04DX004 (ip), vehicle: saline with Tween-80) 93 % of control; (dose: 24.0 mg/kg/injection, schedule: Q04DX004 (ip), vehicle: saline with Tween-80) 90 % of control.

For `CCOC1NC(=O)Oc2ccccc21` (stereo not drawn), the T/C under setting [6] is 107 % of control; the T/C under setting [7] is 100 % of control; the T/C under setting [8] is 99 % of control; the T/C (dose: 400.0 mg/kg/injection, schedule: Q04DX004 (ip), vehicle: Klucel (hydroxypropylcellulose) (HPC)) was 121 % of control.

As to `Nc1ccccc1N`, the T/C is, setting by setting: (dose: 12.0 mg/kg/injection, schedule: Q04DX004 (ip), vehicle: Klucel (hydroxypropylcellulose) (HPC)) 99 % of control; (dose: 25.0 mg/kg/injection, schedule: Q04DX004 (ip), vehicle: Klucel (hydroxypropylcellulose) (HPC)) 98 % of control; under setting [6], 110 % of control; under setting [7], 98 % of control; under setting [8], 103 % of control.

For `COC1N(C2CC(O)C(CO)O2)C(=O)NC(=O)C1(F)Br` (stereo not drawn), the T/C reads like this: under setting [1], 108 % of control; under setting [2], 113 % of control; under setting [3], 112 % of control; under setting [4], 114 % of control; under setting [5], 113 % of control.

Turning to `CN1C(=O)C2CC(O)C(SC3CC4C(=O)N(C)C(=O)C4CC3O)CC2C1=O` (stereo not drawn), the T/C (dose: 37.5 mg/kg/injection, schedule: Q04DX004 (ip), vehicle: water) is 101 % of control; the T/C (dose: 75.0 mg/kg/injection, schedule: Q04DX004 (ip), vehicle: water) is 105 % of control; the T/C (dose: 150.0 mg/kg/injection, schedule: Q04DX004 (ip), vehicle: water) is 102 % of control; the T/C (dose: 300.0 mg/kg/injection, schedule: Q04DX004 (ip), vehicle: water) was 97 % of control; the T/C (dose: 600.0 mg/kg/injection, schedule: Q04DX004 (ip), vehicle: water) was 107 % of control.

Turning to `COc1ccc2[nH]c3ccc4cc[n+](CCN5CCC(C6CCN(CC[n+]7ccc8ccc9[nH]c%10ccc(OC)cc%10c9c8c7)CC6)CC5)cc4c3c2c1`, the T/C is, setting by setting: (dose: 16.0 mg/kg/injection, schedule: Q04DX004 (ip), vehicle: water) 157 % of control; (dose: 32.0 mg/kg/injection, schedule: Q04DX004 (ip), vehicle: water) 194 % of control.
